Data: PubChem BioAssay (NCI)
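GI50 marks 50% less growth. Definition used: TGI = concentration required for complete inhibition of growth.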

Columns and labels:
Test in all cases: NCI tumour cell line growth inhibition, 384-well format
UO-31 renal = test system: UO-31 renal
MDA-MB-468 breast = test system: MDA-MB-468 breast
OVCAR-8 ovarian = test system: OVCAR-8 ovarian
U251 glioblastoma = test system: U251 glioblastoma
NCI-H226 lung = test system: NCI-H226 lung
NCI/ADR-RES ovarian = test system: NCI/ADR-RES ovarian
SF-295 CNS = test system: SF-295 CNS
M14 melanoma = test system: M14 melanoma
ACHN renal = test system: ACHN renal
MDA-MB-231 breast = test system: MDA-MB-231 breast
SNB-75 CNS = test system: SNB-75 CNS
NCI-H460 NSCLC = test system: NCI-H460 NSCLC
IGROV1 ovarian = test system: IGROV1 ovarian
OVCAR-4 ovarian = test system: OVCAR-4 ovarian
UACC-257 melanoma = test system: UACC-257 melanoma
786-0 renal = test system: 786-0 renal
SN12C renal = test system: SN12C renal
COLO 205 colon = test system: COLO 205 colon
OVCAR-3 ovarian = test system: OVCAR-3 ovarian
EKVX NSCLC = test system: EKVX NSCLC
HT29 colon = test system: HT29 colon
A498 renal = test system: A498 renal
SR leukemia = test system: SR leukemia
CCRF-CEM leukemia = test system: CCRF-CEM leukemia
MALME-3M melanoma = test system: MALME-3M melanoma
MOLT-4 leukemia = test system: MOLT-4 leukemia
OVCAR-5 ovarian = test system: OVCAR-5 ovarian
RXF 393 renal = test system: RXF 393 renal
HS 578T breast = test system: HS 578T breast

## COc1ccc(Br)cc1NC(=O)Nc1cccc2c1ccn2Cc1ccnc(N)c1
UO-31 renal
  GI50: 12.2 µM
  TGI: 24.9 µM
MDA-MB-468 breast
  GI50: 2.81 µM
  TGI: 5.07 µM
OVCAR-8 ovarian
  GI50: 11.9 µM
  TGI: 24.5 µM
U251 glioblastoma
  GI50: 6.92 µM
  TGI: 19.5 µM
NCI-H226 lung
  GI50: 5.77 µM
  TGI: 17.9 µM
NCI/ADR-RES ovarian
  GI50: 10.5 µM
  TGI: 23 µM
SF-295 CNS
  GI50: 2.82 µM
  TGI: 8.47 µM
M14 melanoma
  GI50: 6.29 µM
  TGI: 18.1 µM
ACHN renal
  GI50: 7.08 µM
  TGI: 20.3 µM
MDA-MB-231 breast
  GI50: 13.2 µM
  TGI: 26.1 µM
SNB-75 CNS
  GI50: 14.1 µM
  TGI: 29.7 µM
NCI-H460 NSCLC
  GI50: 3.15 µM
  TGI: 9.4 µM
IGROV1 ovarian
  GI50: 11.3 µM
  TGI: 23.6 µM
OVCAR-4 ovarian
  GI50: 3.72 µM
  TGI: 9.86 µM
UACC-257 melanoma
  GI50: 4.42 µM
  TGI: 14.2 µM
786-0 renal
  GI50: 4.23 µM
  TGI: 16.6 µM
SN12C renal
  GI50: 6.14 µM
  TGI: 19.2 µM
COLO 205 colon
  GI50: 5.82 µM
  TGI: 18.2 µM
OVCAR-3 ovarian
  GI50: 10 µM
  TGI: 21.7 µM
EKVX NSCLC
  GI50: 8.67 µM
  TGI: 22 µM
HT29 colon
  GI50: 2.01 µM
  TGI: 4.13 µM
A498 renal
  GI50: 3.56 µM
  TGI: 13.5 µM
SR leukemia
  GI50: 1.75 µM
  TGI: 3.72 µM
CCRF-CEM leukemia
  GI50: 2.49 µM
  TGI: 5.33 µM
MALME-3M melanoma
  GI50: 7.13 µM
  TGI: 19.9 µM
MOLT-4 leukemia
  GI50: 1.56 µM
  TGI: 3.55 µM
OVCAR-5 ovarian
  GI50: 11.8 µM
  TGI: 24.6 µM
RXF 393 renal
  GI50: 6.56 µM
  TGI: 18.7 µM
HS 578T breast
  GI50: 6.06 µM
  TGI: 17.8 µM
